These results are taken from patent US20260166017A1, “SARM1 INHIBITORS FOR USE IN THERAPY AND COSMETICS” (priority 2022, published 2026).

“Also recorded” adds a separate entry of the source.

The conditions of data set [1]: LeWitt, 1980; Loreto et al., 2021; cited from earlier work.
A further data set relates to Rat oligodendrocytes. The data set can be described thus: Cell death / SOX10 positive cell survival in cultured rat oligodendrocytes. Format: cell-based. To be noted: 100 μM vacor for 72 hours vs DMSO. The method, then: Sprague-Dawley neonatal (sp7) rat pups were decapitated following lethal overdose with pentobarbital. The brains were dissected and submerged into Hibernate-A low fluorescence media (Transnetyx Tissue, #HALF). The tissue was cut into 1-mm^3 pieces, washed in HBSS^−/− (Gibco, #11039047), then spun down at 100 g for 1 min at room temperature. To digest the tissue, the tissue was incubated in 34 U/mL papain (Worthington, #LS003127) and 40 μg/mL DNase I (Sigma, #D5025) in HALF, and incubated on an orbital shaker (55 rpm) for 40 min at 37° C. […] To collect the A2B5+ fraction, the MACS MS column (Miltenyi, #130-042-201) was removed from the magnetic stand (Miltenyi, #130-042-102) and cells were flushed from the column with 1 ml of prewarmed OPC medium (DMEM F/12 containing N-Acetyl cysteine (60 μg/ml, Sigma, #A9165), human recombinant insulin (10 ug/ml), sodium pyruvate (1 mM, Thermo Fisher, #11360-070), apo-transferrin (50 μg/ml, Sigma, #T2036), putrescine (16.1 μg/ml, Sigma, #P7505), sodium selenite (40 ng/ml, Sigma, #S5261), progesterone (60 ng/ml, Sigma, #P0130), bovine serum albumin (330 μg/ml, Sigma, #A4919). Cells were counted, then seeded at a density of 20,000 cells/cm^2 on poly-D-lysine (5 μg/ml PDL, Sigma #P6407) coated plates. […]

The subject of the next data set is human primary myoblasts. In words: Cell death assay in human primary myoblasts (propidium iodide). Format: cell-based. Particulars: high dose vacor (100 μM), 24 h vs DMSO. The method, then:
(§1) Human primary myoblasts and human dermal skin fibroblasts were cultured following previously described protocols (Kisiel and Klar 2019; Rozwadowska et al. 2022). Drug treatment was started when cells reached the desired confluency. To visualise cell death, 1 μg/ml propidium iodide (PI) (Thermo Fisher Scientific) was added to the media at the same time of drug addition (Loreto et al. 2021). Phase contrast and fluorescence microscopy images were acquired on a DMi8 upright fluorescence microscope (Leica microsystems) coupled to a monochrome digital camera (Hamamatsu C4742-95). The objective used was HCXPL 20 X/0.40 CORR.

The next data set deals with Human foetal DRG axons. In words: Axon degeneration and regeneration assay in human foetal DRGs in microfluidic chambers. The format is cell-based. Particulars: 24 h after addition of 25 μM Vacor in the axonal compartment. Here is the method: Human foetal DRG ganglia were dissected, dissociated and plated in microfluidic chambers (150 μm barrier, XONA Microfluidics) in 35 mm tissue culture dishes pre-coated with poly-L-lysine (100 μg/ml for 1 hr; Merck) and laminin (20 μg/ml for 1 hr; Merck) in Dulbecco's Modified Eagle's Medium (DMEM, Gibco) with 1% penicillin/streptomycin, 33 ng/ml 2.5 S NGF (all Invitrogen) and 2% B27 (Gibco). 4 μM aphidicolin (Merck) was used to reduce proliferation and viability of small numbers of non-neuronal cells. On DIV7, a difference of 100 μl of media between chambers was introduced and drugs were added to the compartment with the lower hydrostatic pressure. Phase contrast microscopy images were acquired on a DMi8 upright fluorescence microscope (Leica microsystems) coupled to a monochrome digital camera (Hamamatsu C4742-95). The objective used was HCXPL 20 X/0.40 CORR.

The test system of a further data set is Schwann cells. The data set can be described thus: Intracellular NAD+ in Schwann cells (NAD-glo assay). To be noted: 100 μM vacor, 72 hours, compared to DMSO control. The format is cell-based, mouse. Here is the method:
Freshly plated mouse Schwann cells were obtained from P2 sciatic and brachial nerves. Nerves were digested with trypsin and collagenase, centrifuged and plated on laminin/Poly-L-lysine coated glass coverslips in defined medium as previously described (Arthur-Farraj et al., 2011).
[…] Protein was extracted using Pierce™ IP Lysis Buffer supplemented with cOmplete™ Mini EDTA-free Protease Inhibitor Cocktail, and a BCA assay carried out to determine protein concentration. All samples were diluted to 0.5 μg/μL. The NAD-glo assay was performed according to manufacturer's instruction of the NAD^+/NADH-Glo™ assay by Promega (G9071). In short, 25 μL of sample were incubated with 12.5 μL 0.4M HCl at 60° C. for 15 min, before 12.5 μL 0.5M Tris base were added. 10 μL NAD^+ standards or sample were then mixed with 10 μL NAD-glo master mix (1 ml luciferin detection reagent, 5 μl reductase, 5 μl reductase substrate, 5 μl NAD^+ cycling enzyme, 25 μl NAD^+ cycling substrate) and incubated at RT for 40 min. Luminescence was read using a GloMax® Explorer microplate reader and NAD^+ concentrations determined relative to a NAD^+ standard curve.

Data set [2] concerns human dermal skin fibroblasts. In words: Cell death assay in human dermal skin fibroblasts (propidium iodide). Format: cell-based. Particulars: high dose vacor (100 μM), 72 h vs DMSO. Here is the method: as §1

With `O=C(NCc1cccnc1)Nc1ccc([N+](=O)[O-])cc1` [vacor, Vacor], in data set [1], the “neurotoxic effects in humans” value is listed as “severe neurotoxic effects”. The “cell death judged by DAPI nuclear staining and SOX10 immunocytochemistry” value with Rat oligodendrocytes is listed as “died within hours; also recorded: substantial cell death”. For the same molecule, the “cell death by propidium iodide (P.I.) staining” value (in the data set on human primary myoblasts; in data set [2]) was “completely insensitive; also recorded: no cell death occurs” in each case. Moreover, the DRG axon degeneration entry with Human foetal DRG axons was “degenerate”. In addition, the “Intracellular NAD+ levels” value in the data set on Schwann cells is recorded as “no reduction; also recorded: do not change”.
